One may read the IC50 as the concentration that gives 50% inhibition.

The values below come from US5071845A, “Benzoxazepine derivative” (Suntory Limited, priority 1988, dated 1991).

Structures are written as SMILES.

This experiment deals with T1, 5HT1A serotonin receptor (Rattus norvegicus, UniProt P19327).
T1 construct: To the cerebral cortex enucleated from a Wistarstrain male rat; from tissue; host or cells: cerebral cortex of male Wistar rat, washed membrane homogenate
T1 sequence (P19327 1-422): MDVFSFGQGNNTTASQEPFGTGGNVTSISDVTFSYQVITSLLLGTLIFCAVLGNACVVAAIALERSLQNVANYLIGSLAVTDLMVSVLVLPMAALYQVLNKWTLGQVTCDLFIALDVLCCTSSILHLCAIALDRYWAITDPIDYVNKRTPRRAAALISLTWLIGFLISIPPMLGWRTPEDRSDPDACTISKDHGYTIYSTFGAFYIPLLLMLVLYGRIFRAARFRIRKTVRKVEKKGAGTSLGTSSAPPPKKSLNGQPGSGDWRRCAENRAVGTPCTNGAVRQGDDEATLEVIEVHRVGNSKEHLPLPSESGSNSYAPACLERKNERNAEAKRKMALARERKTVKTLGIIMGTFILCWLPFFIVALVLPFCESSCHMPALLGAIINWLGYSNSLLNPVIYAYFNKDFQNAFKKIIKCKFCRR
As to the kind of experiment: Affinity for Serotonin Receptor ([3H]8-OH-DPAT binding, rat cerebral cortex homogenate). Further details: species or system rat (Wistar strain, male). Conditions: [3H]8-OH-DPAT 0.4 nM, 25° C., 30 minutes. How it is done: The test was conducted according to the method of S. T. Perouka (J. Neurochem., 47, 529-540 (1986)).
To the cerebral cortex enucleated from a Wistarstrain male rat was added 50 mM Tris-HCl (pH 7.7) buffer and the mixture was homogenized by using Polytron®. The homogenate was centrifuged at 40,000 G for 10 minutes, and to the obtained precipitate was added the same buffer to effect homogenization, followed by incubation at 37° C. for 30 minutes. The suspension was centrifuged again at 40,000 G for 10 minutes, and to the obtained precipitate was added the same buffer to effect homogenization, followed by centrifugation at 40,000 G for 10 minutes. To the final obtained precipitate was added 50 mM Tris-HCl (10 μm pargyline, 4 mM CaCl2, 0.1% ascorbic acid) (pH 7.4) buffer, to effect homogenization, and the homogenate was used for the binding test. The (^3 H) 8-OH-DPAT used for the binding test was 0.4 nM, with a protein amount of 0.4 to 0.6 mg/ml, and a total amount of 1 ml. After incubation at 25° C. for 30 minutes, the mixture was filtered by a filtration method using a Whatman GF/B filter, and the filter was washed three times with 5 ml of the same buffer.
To the filter was added a scintillation cocktail, and a measurement was conducted by a liquid scintillation counter.
In the case of `O=C1COc2cc(Cl)ccc2C(=O)N1CCCCN1CCN(c2ncccn2)CC1` [Example 64, 8-chloro-4-(4-(4-(2-pyrimidinyl)piperazinyl)butyl)-2,3,4,5-tetrahydro-1,4-benzoxazepine-3,5-dione], the IC50 was found to be 4.1 nM. The compound `O=C1COc2ccccc2C(=O)N1CCCCN1CCN(c2ccc(F)cc2)CC1` [Example 43, 4-(4-(4-(4-fluorophenyl)piperazinyl)-butyl)-2,3,4,5-tetrahydro-1,4-benzoxazepine-3,5] registered an IC50 of 2.48 nM. For `O=C1c2ccccc2OCCN1CCCCN1CCN(c2ccccn2)CC1` [Example 27, 4-(4-(4-(2-pyridyl)piperazinyl)butyl)-2,3,4,5-tetrahydro-1,4-benzoxazepine-5-one] the value was 6.15 nM; for `O=C1COc2ccccc2C(=O)N1CCCCN1CCN(c2ncccc2Cl)CC1` [Example 48], 2.77 nM; for `O=C1COc2cc(Cl)ccc2C(=O)N1CCCCN1CCN(c2ccccn2)CC1` [Example 59, 8-chloro-4-(4-(4-(2-pyridyl)piperazinyl)butyl)-2,3,4,5-tetrahydro-1,4-benzoxazepine-3,5-dione], 1.78 nM. Compound `Cc1ccc2c(c1)OCC(=O)N(CCCCN1CCN(c3ccccn3)CC1)C2=O` [Example 65, 8-methyl-4-(4-(4-(2-pyridyl)piperazinyl)butyl)-2,3,4,5-tetrahydro-1,4-benzoxazepine-3,5-dione] registered a 50% inhibitory concentration (IC50) of 1.55 nM.

`COc1ccc2c(c1)C(=O)N(CCCCN1CCN(c3ncccn3)CC1)C(=O)CO2` [Example 58, 7-methoxy-4-(4-(4-(2-pyrimidinyl)piperazinyl)butyl)-2,3,4,5-tetrahydro-1,4-benzoxaze-3,5-dione]: the IC50 stood at 5.02 nM.

As for `COc1ccccc1N1CCN(CCCCN2CCOc3ccccc3C2=O)CC1` [Example 30], the IC50 amounted to 2.62 nM.

The compound `COc1ccc2c(c1)OCC(=O)N(CCCCN1CCN(c3ncccn3)CC1)C2=O` [Example 72, 8-methoxy-4-(4-(4-(2-pyrimidinyl)piperazinyl)butyl)-2,3,4,5-tetrahydro-1,4-benzoxazepine-3,5-dione] showed an IC50 of 4.26 nM. Compound `O=C1COc2ccccc2C(=O)N1CCCCN1CCN(c2cccc(Cl)c2)CC1` [Example 39] yielded an IC50 of 1.41 nM.

In turn, `COc1ccnc(N2CCN(CCCCN3C(=O)COc4ccccc4C3=O)CC2)n1` [Example 83, 4-(4-(4-(4-methoxy-2-pyrimidinyl)piperazinyl)butyl)-2,3,4,5-tetrahydro-1,4-benzoxazepine-3,5-dione] had an IC50 of 4.16 nM. As to `Cc1ccc2c(c1)OCC(=O)N(CCCCN1CCN(c3ncccn3)CC1)C2=O` [Example 70, 8-methyl-4-(4-(4-(2-pyrimidinyl)piperazinyl)butyl)-2,3,4,5-tetrahydro-1,4-benzoxazepine-3,5-dione], the IC50 turned out to be 4.75 nM. The compound `O=C1COc2ccccc2C(=O)N1CCCCN1CCN(c2ncccn2)CC1` [Example 52, 4-(4-(4-(2-pyrimidinyl)piperazinyl)butyl)-2,3,4,5-tetrahydro-1,4-benzoxazepine-3,5-d] showed an IC50 of 3.75 nM. `O=C1COc2ccccc2C(=O)N1CCCCN1CCN(c2ccccc2Cl)CC1` [Example 36, 4-(4-(4-(2-chlorophenyl)piperazinyl)butyl)-2,3,4,5-tetrahydro-1,4-benzoxazepine-3,5] registered an IC50 of 2.31 nM. For `COc1ccc2c(c1)C(=O)N(CCCCN1CCN(c3ncccc3Cl)CC1)C(=O)CO2` [Example 54, 7-methoxy-4-(4-(4-(3-chloro-2-pyridyl)-piperazinyl)butyl)-2,3,4,5-tetrahydro-1,4-benzoxazepine-3,5-dione] the value was 4.91 nM.
